Our source for the IC50 values is patent US20210236476A1, “METHODS OF TREATING CANCER WITH SMALL MOLECULE PD-L1 INHIBITORS” (CHEMOCENTRYX, INC., priority 2018, published 2021).

This test has as its target T1, human PD-L1 / human PD-1 interaction (Homo sapiens, UniProt Q9NZQ7).
T1 construct: purchased R&D (PD-L1); ACRO Biosystems (PD-1, biotin)
The test is described as follows: ELISA of PD-1/PD-L1 interaction. The test is classed as binding. As for the experimental part: The activity of Compound 1.041 was assessed with an ELISA assay assessing the direct binding of recombinant PD-1 and PD-L1 proteins (FIG. 1A), a dimerization ELISA assay assessing the direct binding/dimerization of recombinant PD-L1 proteins (FIG. 1B), a cell based assay measuring the downstream signaling following the interaction of PD-1 and PD-L1 using a Luciferase reporter assay with cell lines overexpressing PD-1 and PD-L1 (FIG. 1C), and a mixed lymphocyte reaction assay measuring the functional outcome of upregulation of IFNg secretion, using allogenic primary human immune cells (FIG. 1D). Briefly, the mixed lymophocyte reaction assay was performed as follows: Dendritic cells and CD4+T Cells from unmatched donors were cultured together for 5 days in 96 well-flat bottom plates. Test compound was added as indicated at starting concentration of 1 μM with 1:4 dilutions with DMSO. Supernatants were harvested after 5 days of incubation and detection of human IFNg was performed by ELISA. […]
96 Well plates were coated with 1 μg/mL of human PD-L1 (obtained from R&D) in
PBS overnight at 4° C. The wells were then blocked with 2% BSA in PBS (WN) with 0.05% TWEEN-20 for 1 hour at 37° C. The plates were washed 3 times with PBS/0.05% TWEEN-20 and the compounds were serial diluted (1:5) in dilution medium and added to the ELISA plates. Human PD-1 and biotin 0.3μg/mL (ACRO Biosystems) were added and incubated for 1 hour at 37° C. then washed 3 times with PBS/0.05% TWEEN-20. A second block was performed with 2% BSA in PBS (WN)/0.05% TWEEN-20 for 10 min at 37° C. and was washed 3 times with PBS/0.05% TWEEN-20. Streptavidin—HRP was added for 1 hour at 37° C. then washed 3 times with PBS/0.05% TWEEN-20. TMB substrate was added and reacted for 20 min at 37° C. A stop solution (2 N aqueous H2SO4) was added. The absorbance was read at 450 nm using a micro-plate spectrophotometer.
Background: ELISA stands for enzyme-linked immunosorbent assay.

Structures are written as SMILES.

T1 sequence (Q9NZQ7 19-239 limits assumed): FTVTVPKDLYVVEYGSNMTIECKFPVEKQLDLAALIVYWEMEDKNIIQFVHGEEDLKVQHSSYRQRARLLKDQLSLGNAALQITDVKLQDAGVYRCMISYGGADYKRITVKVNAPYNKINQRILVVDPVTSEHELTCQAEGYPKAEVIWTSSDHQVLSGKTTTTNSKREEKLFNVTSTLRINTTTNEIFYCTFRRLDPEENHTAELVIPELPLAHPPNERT

For the compound `Cc1c(OCCCN2CC(C)(C)C2)cccc1-c1cccc2c1CC[C@@H]2Oc1cc(OCc2cc(C#N)cc(C#N)c2)c(CN[C@H]2CCC(=O)NC2)cc1Cl`, the IC50 is < 5 nM.

As to `Cc1c(OCCCN2CCC(F)CC2)cccc1-c1cccc2c1CC[C@@H]2Oc1cc(OCc2cc(C#N)cc(C#N)c2)c(CN[C@@H]2CCOC[C@H]2O)cc1Cl`, the IC50 was < 5 nM.

As for `CCOc1cc(O[C@H]2CCc3c(-c4cccc(OCCCN5CCC5(C)C)c4C)cccc32)c(Cl)cc1CN(C)CC(=O)O`, the concentration for half-maximal inhibition (IC50) is 5 to 500 nM.

For the compound `N#Cc1cncc(COc2cc(O[C@H]3CCc4c(-c5cccc(OCCCN6CC(O)C6)c5Cl)cccc43)c(Cl)cc2CNC[C@@H]2CCC(=O)N2)c1`, the IC50 was < 5 nM.

As to `CC(CO)(NCc1cc(Cl)c(O[C@H]2CCc3c(-c4cccc(OCCCN5CC6(CC(F)C6)C5)c4Cl)cccc32)cc1OCc1cncc(C#N)c1)C(=O)O` (stereo partly drawn), the IC50 is < 5 nM.

Turning to `N#Cc1cncc(COc2cc(O[C@H]3CCc4c(-c5cccc(OCCCN6CC7(CC(F)C7)C6)c5Cl)cccc43)c(Cl)cc2CN[C@H]2CCC[C@H]2O)c1`, the IC50 was < 5 nM.

With `Cc1c(OCCCN2CC3(CC(O)C3)C2)cccc1-c1cccc2c1CC[C@@H]2Oc1cc(OCc2cncc(C#N)c2)c(CN[C@H](C(=O)O)[C@@H](C)O)cc1Cl`, the IC50 was < 5 nM.

For the compound `CCOc1cc(O[C@H]2CCc3c(-c4cccc(OCCCN5CCC[C@@H]5C(C)C)c4C)cccc32)c(Cl)cc1CNC[C@@H]1CCC(=O)N1`, the IC50 was < 5 nM.

On to `N#Cc1cncc(COc2cc(O[C@H]3CCc4c(-c5cccc(OCCCN6CC7(CC(F)C7)C6)c5Cl)cccc43)c(Cl)cc2CN[C@@H]2CCCC[C@@H]2O)c1`, for which the IC50 was < 5 nM.

For the compound `Cc1c(OCCCN2CCC(O)CC2)cccc1-c1cccc2c1CC[C@@H]2Oc1cc(OCc2cncc(C#N)c2)c(CN2CCC(C)(O)CC2)cc1Cl`, the IC50 was < 5 nM.

`Cc1c(OCCCNCC(C)(C)O)cccc1-c1cccc2c1CC[C@@H]2Oc1cc(OCc2cncc(C#N)c2)c(CNCC2CCC(=O)N2)cc1Cl` (stereo partly drawn): the IC50 was < 5 nM.

Turning to `N#Cc1cncc(COc2cc(O[C@H]3CCc4c(-c5cccc(OCCCN6CCC(F)CC6)c5Cl)cccc43)c(Cl)cc2CN2CC[C@@H](O)C2)c1`, the IC50 was < 5 nM.

Turning to `CCOc1cc(O[C@H]2CCc3c(-c4cccc(OCCCN(C)C(C)C)c4C)cccc32)c(Cl)cc1CNC[C@@H]1CCC(=O)N1`, the IC50 is < 5 nM.

As to `CC(CO)(CO)NCc1cc(Cl)c(O[C@H]2CCc3c(-c4cccc(OCCCN5CCNC(=O)C5)c4Cl)cccc32)cc1OCc1cncc(C#N)c1`, the IC50 is < 5 nM.

With `CC(C)(O)[C@H](NCc1cc(Cl)c(O[C@H]2CCc3c(-c4cccc(OCCCN5CCC(F)CC5)c4Cl)cccc32)cc1OCc1cncc(C#N)c1)C(=O)O`, the IC50 is < 5 nM.

As for `Cc1c(OCCCN2CCC(O)CC2)cccc1-c1cccc2c1CC[C@@H]2Oc1cc(OCc2cncc(C#N)c2)c(CN[C@@H]2CCC[C@H]2O)cc1Cl`, the IC50 is < 5 nM.

For `Cc1c(OCCCN2C3CCC2CC(O)C3)cccc1-c1cccc2c1CC[C@@H]2Oc1cc(OCc2cncc(C#N)c2)c(CNCC2CCC(=O)N2)cc1Cl` (stereo partly drawn), the IC50 was < 5 nM.

Take `Cc1c(OCCCN2CCC(O)CC2)cccc1-c1cccc2c1CC[C@@H]2Oc1cc(OCc2cncc(C#N)c2)c(CN[C@H](C(=O)NS(C)(=O)=O)[C@@H](C)O)cc1Cl`: the IC50 is < 5 nM.

`N#Cc1cncc(COc2cc(O[C@H]3CCc4c(-c5cccc(OCCCN6CC[C@H](F)C6)c5Cl)cccc43)c(Cl)cc2CN[C@@H]2CCCC[C@@H]2O)c1`: the IC50 was < 5 nM.

On to `CCOc1cc(O[C@H]2CCc3c(-c4cccc(OCCCN5CCCC5(C)C)c4C)cccc32)c(Cl)cc1CNC[C@@H]1CCC(=O)N1`, for which the IC50 was < 5 nM.

For the compound `N#Cc1cncc(COc2cc(O[C@H]3CCc4c(-c5cccc(OCCCN6CC(O)C6)c5Cl)cccc43)c(Cl)cc2CN2CC(O)C2)c1`, the IC50 is < 5 nM.

Take `N#Cc1cncc(COc2cc(O[C@H]3CCc4c(-c5cccc(OCCCN6CC7(CC(O)C7)C6)c5Cl)cccc43)c(Cl)cc2CN[C@@H]2CCC[C@H]2O)c1`: the IC50 is < 5 nM.

Regarding `CCOc1cc(O[C@H]2CCc3c(-c4cccc(OCCCN5CCC5(C)C)c4C)cccc32)c(Cl)cc1CN(C)CCCC(=O)O`, the IC50 was < 5 nM.

For the compound `Cc1c(OCCCN2CCC(F)CC2)cccc1-c1cccc2c1CC[C@@H]2Oc1cc(OCc2cc(C#N)cc(C#N)c2)c(CNCC(=O)NS(C)(=O)=O)cc1Cl`, the IC50 was < 5 nM.

In the case of `CC1(C)CC(O)CCN1CCCOc1cccc(-c2cccc3c2CC[C@@H]3Oc2cc(OCc3cncc(C#N)c3)c(CN[C@@H]3CCCC[C@@H]3O)cc2Cl)c1Cl` (stereo partly drawn), the IC50 was < 5 nM.

As for `N#Cc1cncc(COc2cc(O[C@H]3CCc4c(-c5cccc(OCCCN6CCC(F)CC6)c5Cl)cccc43)c(Cl)cc2CN[C@@H]2CCCC[C@@H]2O)c1`, the IC50 was < 5 nM.

Turning to `C[C@@H](O)[C@H](NCc1cc(Cl)c(O[C@H]2CCc3c(-c4cccc(OCCCN5CCC(F)CC5)c4Cl)cccc32)cc1OCc1cncc(C#N)c1)C(=O)NS(C)(=O)=O`, the IC50 is < 5 nM.

`Cc1c(OCCCN2CCCC[C@@H]2C)cccc1-c1cccc2c1CC[C@@H]2Oc1cc(OCc2cc(C#N)cc(C#N)c2)c(CN[C@H]2CCC(=O)NC2)cc1Cl`: the IC50 was < 5 nM.

With `N#Cc1cncc(COc2cc(O[C@H]3CCc4c(-c5cccc(OCCCN6CCCCC6)c5Cl)cccc43)c(Cl)cc2CN[C@@H]2CCCC[C@@H]2O)c1`, the concentration for half-maximal inhibition (IC50) was < 5 nM.

For the compound `Cc1c(OCCCN2CCC(O)CC2)cccc1-c1cccc2c1C[C@H](F)[C@@H]2Oc1cc(OCc2cncc(C#N)c2)c(CN[C@H](C(=O)O)[C@@H](C)O)cc1Cl`, the IC50 was < 5 nM.

As for `Cc1c(OCCCN2CCC(F)(F)CC2)cccc1-c1cccc2c1CC[C@@H]2Oc1cc(OCc2cncc(C#N)c2)c(CN[C@H](C(=O)O)[C@@H](C)O)cc1Cl`, the IC50 was 5 to 500 nM.

As to `Cc1c(OCCCN2C(C)CCC2C)cccc1-c1cccc2c1CC[C@@H]2Oc1cc(OCc2cc(C#N)cc(C#N)c2)c(CN[C@H]2CCC(=O)NC2)cc1Cl` (stereo partly drawn), the IC50 was < 5 nM.

As for `Cc1c(OCCCN2CCC(F)CC2)cccc1-c1cccc2c1CC[C@@H]2Oc1cc(OCc2cc(C#N)cc(C#N)c2)c(CN[C@@H]2CCC[C@@H]2O)cc1Cl`, the IC50 is < 5 nM.

Consider `Cc1c(OCCCN2CCC(O)CC2)cccc1-c1cccc2c1C[C@H](F)[C@@H]2Oc1cc(OCc2cncc(C#N)c2)c(CN[C@@](C)(CO)C(=O)O)cc1Cl`, for which the IC50 was < 5 nM.

In the case of `CC1(F)CCN(CCCOc2cccc(-c3cccc4c3CC[C@@H]4Oc3cc(OCc4cncc(C#N)c4)c(CNC[C@@H]4CCC(=O)N4)cc3Cl)c2Cl)CC1`, the IC50 was < 5 nM.

Regarding `N#Cc1cncc(COc2cc(O[C@H]3CCc4c(-c5cccc(OCCCN6CCC(F)CC6)c5Cl)cccc43)c(Cl)cc2CN2CC3(C2)NC(=O)NC3=O)c1`, the IC50 is < 5 nM.

As for `CC1(O)CN(Cc2cc(Cl)c(O[C@H]3CCc4c(-c5cccc(OCCCN6CCC(F)CC6)c5Cl)cccc43)cc2OCc2cncc(C#N)c2)C1`, the half-inhibitory concentration (IC50) was < 5 nM.

Regarding `Cc1c(OCCCN2CCC(O)CC2)cccc1-c1cccc2c1CCC2Oc1cc(OCc2cncc(C#N)c2)c(CN[C@H](C(=O)O)[C@@H](C)O)cc1Cl` (stereo partly drawn), the IC50 was < 5 nM.

As for `Cc1c(OCCCN2CCC(O)CC2)cccc1-c1cccc2c1CC[C@H]2Oc1cc(OCc2cncc(C#N)c2)c(CN[C@H](C(=O)O)[C@@H](C)O)cc1Cl`, the IC50 was < 5 nM.

Take `N#Cc1cncc(COc2cc(O[C@H]3CCc4c(-c5cccc(OCCCN6CC(O)C6)c5Cl)cccc43)c(Cl)cc2CN2CCC(O)CC2)c1`: the IC50 is < 5 nM.

As for `C[C@@](CO)(NCc1cc(Cl)c(O[C@@H]2c3cccc(-c4cccc(OCCCN5CC(O)C5)c4Cl)c3C[C@@H]2F)cc1OCc1cc(C#N)cc(C#N)c1)C(=O)O`, the IC50 was < 5 nM.

For the compound `N#Cc1cncc(COc2cc(O[C@H]3CCc4c(-c5cccc(OCCCN6CC(O)C6)c5Cl)cccc43)c(Cl)cc2CN[C@@H]2CCCC[C@@H]2O)c1`, the IC50 was < 5 nM.

With `CC(C)(O)CNCc1cc(Cl)c(O[C@H]2CCc3c(-c4cccc(OCCCN5CC(O)C5)c4Cl)cccc32)cc1OCc1cncc(C#N)c1`, the IC50 is < 5 nM.

Consider `N#Cc1cncc(COc2cc(O[C@H]3CCc4c(-c5cccc(OCCCN6CC7(CC(O)C7)C6)c5Cl)cccc43)c(Cl)cc2CN[C@H]2CCC[C@H]2O)c1`, for which the IC50 was < 5 nM.

With `Cc1c(OCCCN2CCC(O)CC2(C)C)cccc1-c1cccc2c1CC[C@@H]2Oc1cc(OCc2cc(C#N)cc(C#N)c2)c(CN[C@H]2CCC(=O)NC2)cc1Cl` (stereo partly drawn), the IC50 is < 5 nM.

For `N#Cc1cncc(COc2cc(O[C@H]3CCc4c(-c5cccc(OCCCN6CCNC(=O)C6)c5Cl)cccc43)c(Cl)cc2CNC2(C(=O)O)CCC2)c1`, the IC50 was < 5 nM.

Take `Cc1c(OCCCN2CCC(O)CC2)cccc1-c1cccc2c1C[C@H](F)[C@@H]2Oc1cc(OCc2cncc(C#N)c2)c(CN[C@@H]2CCCC[C@@H]2O)cc1Cl`: the IC50 is < 5 nM.

As for `N#Cc1cncc(COc2cc(O[C@H]3CCc4c(-c5cccc(OCCCN6CC7(CC(F)C7)C6)c5Cl)cccc43)c(Cl)cc2CN[C@H]2CCC[C@@H]2O)c1`, the IC50 was < 5 nM.

By IC50 is commonly meant the concentration that inhibits the measured activity by half. A low value points to greater potency.
